Positions of bridges follow the written chain, without caps; N, C: chain ends. Residues, ends and D or L forms follow the SMILES beside them.

A short description of this experiment: The compound was tested for inhibition of streptavidin binding to the TentaGel-bound Ac-HPQFG peptide.

As to Ac-AHPQFGAEK-NH2, the IC50 (in general, the concentration that gives 50% inhibition) was 204 µM.
The result for `C[C@@H]1NC(=O)CC[C@@H](C(=O)N[C@@H](CCCCN)C(N)=O)NC(=O)[C@H](C)NC(=O)[C@@H]2CCCN2C(=O)[C@H](Cc2ccccc2)NC(=O)[C@H](CCC(N)=O)NC(=O)[C@@H]2CCCN2C(=O)[C@H](Cc2c[nH]cn2)NC1=O` (AHPQFPAEK-NH2; lactam N-8) reads 0.128 µM; that for `C[C@@H]1NC(=O)CC[C@@H](C(=O)N[C@@H](CCCCN)C(N)=O)NC(=O)[C@H](C)NC(=O)[C@H](Cc2ccccc2)NC(=O)[C@H](Cc2c[nH]cn2)NC(=O)CNC(=O)[C@H](Cc2ccc(O)cc2)NC(=O)[C@H](CCC(N)=O)NC1=O` (AQYGHFAEK-NH2; lactam N-8), above 5000 µM; that for Ac-AHPQFPAEK-NH2, 136 µM.
For the molecule `CC[C@H](C)[C@H](NC(=O)[C@H]1CSSC[C@H](NC(=O)[C@H](CCC(=O)O)NC(=O)[C@H](C)N)C(=O)N[C@@H](Cc2c[nH]cn2)C(=O)N2CCC[C@H]2C(=O)N[C@@H](CCC(N)=O)C(=O)NCC(=O)N2CCC[C@H]2C(=O)N2CCC[C@H]2C(=O)N1)C(=O)N[C@@H](CCC(=O)O)C(=O)NCC(=O)N[C@@H](CCCN=C(N)N)C(=O)N[C@@H](CCCCN)C(N)=O`, the concentration for half-maximal inhibition (IC50) was determined as 0.73 µM.
`C[C@@H]1NC(=O)CNC(=O)[C@H](Cc2ccccc2)NC(=O)[C@H](CCC(N)=O)NC(=O)[C@@H]2CCCN2C(=O)[C@H](Cc2c[nH]cn2)NC(=O)[C@H](C)NC(=O)CC[C@@H](C(=O)N[C@@H](CCCCN)C(N)=O)NC1=O` (AHPQFGAEK-NH2; lactam N-8) showed an IC50 of 19 µM.

The values above are taken from ChEMBL document CHEMBL1130947, “Tight-binding streptavidin ligands from a cyclic peptide library” (Bioorg Med Chem Lett, 1998).
